Results reported in US20260248768A1, “MYC PROGRAM AS A MARKER OF RESPONSE TO ENZALUTAMIDE IN PROSTATE CANCER” (Rutgers, The State University of New Jersey, priority 2022, published 2026).

What was measured:
Format in all cases: cell-based
[1] = tested on: LNCaP-EnzaRes cells; assay: Colony formation assay, Enzalutamide-resistant LNCaP cells; conditions: MYCi975 2 μM, Enzalutamide 10 μM, compared to Intact (DMSO)
Method: (§1) FIGS. 14A and 14B show MYC inhibition reduces viability and colony formation in Enzalutamide resistant conditions. (FIG. 14A) Drug response curves of Enzalutamide naïve LNCaP or Enzalutamide-resistant LNCaP cells treated with Enzalutamide and/or MYC-i975. (FIG. 14B) Colony formation assay using Enzalutamide-resistant LNCaP cells t (LNCaP-Enza-Res) in intact (treated with DMSO), treated with enzalutamide (10 μM), MYC-i975 (2 μM), or a combination of Enzalutamide+MYC-i975 (10 μM+2 μM). Cells were grown in the presence of respective drugs. Bars represent quantification of Crystal Violet trapped by migrated cells. P-value is estimated utilizing one-tailed Welch t-test. * p<0.05, *** p≤0.001.
(§2) Generation of Enzalutamide-resistant cell lines: LNCaP (clone FDG) and C42B cells were purchased from ATCC and were grown in RPMI1640 media (GIBCO #11875093) supplemented with 10% Fetal Bovine Serum (FBS, Corning Cat #35-011-CV) and maintained at […] in and 5% CO2. Enzalutamide powder was purchased from Sellekchem (cat #S1250) and re-suspended in DMSO. Cells were plated in 6 well plates and treated either with DMSO, or with Enzalutamide (20 μM), refreshed every 4 days for up to 3 months until the resistance emerged. RNA from cells was extracted on indicated days using the methods described below. […]

[2] = tested on: C42B-EnzaRes cells; assay: Boyden chamber-based in vitro migration assay; conditions: MYCi975 2 μM, Enzalutamide 10 μM, vs Intact (DMSO)
Method: (§3) FIGS. 13A-13F show MYC targeting is beneficial for patients in Enzalutamide-resistant conditions. (FIG. 13A) Drug sensitivity curves of Enzalutamide-naïve, or Enzalutamide-resistant (EnzaRes) C42B cells treated with MYCi975. (FIG. 13B) Colony formation assay using Enzalutamide-resistant (EnzaRes) C42B cells in Intact (treated with DMSO), treated with Enzalutamide (10 μM), MYCi975 (2 μM), or a combination of Enzalutamide+MYCi975 (10 μM+2 μM). Cells were grown in the presence of respective drugs. Representative images are shown. P-value was estimated using a one-tailed Welch t-test. (FIG. 13C) Boyden chamber-based in vitro migration assay using Enzalutamide-resistant (EnzaRes) C42B cells in Intact (treated with DMSO), treated with Enzalutamide (10 μM), MYCi975 (2 μM), or a combination of Enzalutamide+MYCi975 (10 μM+2 μM). Bars represent the quantification of Crystal Violet trapped by migrated cells. P-value was estimated using a one-tailed Welch t-test. (FIG. 13D) Expression of NME2 in Intact and Enzalutamide-resistant (EnzaRes) C42B cells, using the qRT-PCR. P-value was estimated using the one-tailed Welch t-test. […] Bars represent the quantification of Crystal Violet trapped by migrated cells. * p-value <0.05, ** p-value≤0.01, *** p-value≤0.001

[3] = tested on: C42B-EnzaRes cells; assay: Colony formation assay, Enzalutamide-resistant C42B cells; conditions: MYCi975 2 μM, Enzalutamide 10 μM, compared to Intact (DMSO)
Method: as §3, with “p-value≤0.001 […]” for “p-value≤0.001”

[4] = tested on: C42B cells; assay: Dose-response cell viability assay in C42B cells; conditions: both Enzalutamide-naïve and Enzalutamide-resistant conditions, dose-dependent manner (FIG. 13A)
Method: as §3, with “p-value≤0.001 […]” for “p-value≤0.001”

[5] = tested on: LNCaP cells; assay: Dose-response cell viability assay in LNCaP cells; conditions: both Enzalutamide-naïve and Enzalutamide-resistant conditions, dose-dependent manner (FIG. 14A)
Method: as §1, §2

[6] = tested on: MYC; assay: Doxycycline-inducible shRNA knockdown of NME2, MYC expression by Western blot; conditions: C4-2B cells; 0-2000 ng/mL doxycycline for 96 hours; Western blot (FIG. 15)
Method: Finally, C4-2B cells expressing doxycycline-inducible shRNA targeting NME2 were generated using the targeting sequence […] (SEQ ID NO: 9). Cells were treated with 0-2000 ng/mL doxycycline for 96 hours and NME2 and MYC expression were evaluated by Western blot.

## Cn1nc(C(F)(F)F)cc1-c1ccc(OCc2ccc(Cl)cc2)c(-c2ccc(Cl)c(C(F)(F)F)c2)c1O [MYCi975]
[1]
  colony formation: reduced the colony formation
[2]
  cell migration: significant reduction in cell migration
[3]
  colony formation: reduced the colony formation
[4]
  cell viability: striking reduction of the cell viability
[5]
  cell viability: striking reduction of the cell viability

## shRNA targeting NME2: doxycycline-inducible shRNA targeting NME2, targeting sequence GAAATCAGCCTATGGTTTAAG
[6]
  MYC expression: suppresses MYC expression
